These results are taken from ChEMBL document CHEMBL4811248, “Discovery of imidazopyrrolopyridines derivatives as novel and selective inhibitors of JAK2” (Eur J Med Chem, 2021).

Data set [1] in a line: Aqueous solubility of compound by HPLC analysis. Format: physicochemical. The following applies: buffer.
Data set [2] is described as follows: Metabolic stability in rat liver microsomes assessed as compound remaining at 1 uM measured up to 120 mins in presence of NADPH by HPLC-MS/MS analysis. Format: ADME, Microsome. The following applies: read-out: Stabilty. (Liver microsomes are vesicles of endoplasmic reticulum, rich in cytochrome P450 enzymes.)
A short description of data set [3]: Tmax in Lewis rat at 5 mg/kg, po measured up to 24 hrs by LC-MS/MS method. The format is ADME, organism-based. The following applies: in vivo.
Data set [4] is described as follows: Cmax in Lewis rat at 5 mg/kg, po measured up to 24 hrs by LC-MS/MS method. Format: ADME, organism-based. The arrangement: route oral, dose 5 mg/kg, time <=24. The following applies: in vivo.
A short description of data set [5]: AUC in Lewis rat at 1 mg/kg, iv measured up to 24 hrs by LC-MS/MS method. The following applies: in vivo. Also noted: route intravenous, dose 1 mg/kg, time <=24. Format: ADME, organism-based.
Data set [6] can be described thus: AUC in Lewis rat at 5 mg/kg, po measured up to 24 hrs by LC-MS/MS method. Format: ADME, organism-based. The arrangement: route oral, dose 5 mg/kg, time <=24. The following applies: in vivo.
A short description of data set [7]: Clearance in Lewis rat at 1 mg/kg, iv measured up to 24 hrs by LC-MS/MS method. Format: ADME, organism-based. The following applies: in vivo.
Data set [8] can be described thus: Clearance in Lewis rat at 5 mg/kg, po measured up to 24 hrs by LC-MS/MS method. Format: ADME, organism-based. The following applies: in vivo.
Data set [9] in a line: Volume of distribution at steady state in Lewis rat at 1 mg/kg, iv measured up to 24 hrs by LC-MS/MS method. The format is ADME, organism-based. The following applies: in vivo, read-out: Vdss.
The nature of data set [10]: Volume of distribution at steady state in Lewis rat at 5 mg/kg, po measured up to 24 hrs by LC-MS/MS method. Format: ADME, organism-based. The following applies: in vivo.
The nature of data set [11]: Half life in Lewis rat at 1 mg/kg, iv measured up to 24 hrs by LC-MS/MS method. The following applies: in vivo. Format: ADME, organism-based.
Data set [12] is described as follows: Half life in Lewis rat at 5 mg/kg, po measured up to 24 hrs by LC-MS/MS method. The format is ADME, organism-based. The following applies: in vivo.
A short description of data set [13]: MRT in Lewis rat at 1 mg/kg, iv measured up to 24 hrs by LC-MS/MS method. The following applies: in vivo. The format is ADME, organism-based.
Data set [14] is described as follows: MRT in Lewis rat at 5 mg/kg, po measured up to 24 hrs by LC-MS/MS method. The format is ADME, organism-based. The following applies: in vivo.
Data set [15] is described as follows: Oral bioavailability in Lewis rat at 5 mg/kg measured up to 24 hrs by LC-MS/MS method. Format: ADME, organism-based. The following applies: in vivo.
A short description of data set [16]: Distribution coefficient between octanol and aqueous buffer, logD of the compound in pH 7.2 buffer.

Each structure is given as a SMILES string. In brackets after ≈: the same amount, converted by molar mass.

As a reminder, the solubility is the concentration that dissolves in the medium under given conditions. The low end stands for little dissolved substance, the high end for much dissolved substance. In general, Tmax refers to the time from dosing to the highest level. Broadly, the Cmax is the highest concentration seen after dosing. By AUC is commonly meant concentration integrated over time. Read a low AUC as low exposure. One may read the half-life as how long it takes for the measured level to halve. Lower therefore signals rapid decline. As usually defined, the MRT is a mean duration of stay, worked out from the concentration-time curve. Broadly, the bioavailability is the share of a dose that reaches the circulation, judged against a reference dose that is usually intravenous. Broadly, the logD is lipophilicity at a set pH, counting ionised and neutral species. A higher logD goes with higher lipophilicity. With `CCS(=O)(=O)N1CC(CC#N)(n2cc(-c3ncnc4[nH]ccc34)cn2)C1` [BARICITINIB], the concentration in solution in [1] (solubility) came to 16.3 µg/mL (≈ 43.9 µM). Moreover, the remaining at 2 h, 1 µM in data set [2] was determined as 96.1%. For the same molecule, the Tmax in data set [3] came out at 1 h. This molecule also returned a Cmax in [4] of 659 ng/mL. Also, the AUC at 24 h is 1590 ng·h/mL in data set [5] and 3610 ng·h/mL in [6]. Besides, the clearance in [7] was 10.5 mL/min/kg; in data set [8], 23.2 mL/min/kg. In addition, the Vd in [9] worked out at 1.8 L/kg. Also, in [10], the Vdss worked out at 4.88 L/kg. The half-life is 1.96 h in data set [11] and 2.43 h in data set [12]. Further, the MRT in data set [13] came to 1.34 h; in data set [14], 4.36 h. Besides, in [15], the bioavailability was determined as 45.5%. The logD in data set [16] was determined as 0.24.
